Data: patent publication US9765105B2, “Macrolide compound” (Pulike Biological Engineering, Inc., priority 2013, dated 2017)

What was measured:
Experiment in all cases: in vitro susceptibility, MIC by mini broth dilution
Assay type in all cases: cell-based
[1] = system: Staphylococcus aureus CVCC26003; conditions: strain CVCC26003
How it was run: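 MICs were determined by mini broth dilution under NCCLS standards in CAMHB, using revived S. aureus CVCC26003 subcultured 20 h at 35° C. Compounds were two-fold serially diluted in DMSO across 11 wells, with duplicate rows. Bacterial suspension was diluted 1:200 in medium before inoculation.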

[2] = system: Actinobacillus pleuropneumoniae CVCC262; conditions: strain CVCC262
How it was run: (§1)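 MICs determined by mini broth dilution per NCCLS (now CLSI) standards. Strains revived from −20° C, subcultured twice on solid medium at 35° C for 20 h; compounds two-fold serially diluted in DMSO over 11 gradients, duplicate rows, bacterial suspension diluted 1:200 in liquid medium.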

Haemophilus parasuis = system: Haemophilus parasuis
How it was run: as §1

[3] = system: Pasteurella multocida CVCC399; conditions: strain CVCC399
How it was run: as §1

[4] = system: Streptococcus equines CVCC556; conditions: strain CVCC556
How it was run: as §1

SMILES | MIC values, Staphylococcus aureus CVCC26003 [1] [ug/mi] | MIC values, Actinobacillus pleuropneumoniae CVCC262 [2] [ug/mi] | MIC values, Haemophilus parasuis (Haemophilus parasuis) [ug/mi] | MIC values, Pasteurella multocida CVCC399 [3] [ug/mi] | MIC values, Streptococcus equines CVCC556 [4] [ug/mi]
CCCN1C[C@H](C)[C@@H](O)[C@](C)(O)[C@@H](CC)OC(=O)[C@H](C)[C@@H](O[C@H]2C[C@@](C)(OC)[C@](O)(CNCCCC(OC)OC)[C@H](C)O2)[C@H](C)[C@@H](O[C@@H]2O[C@H](C)C[C@H](N(C)C)[C@H]2O)[C@](C)(O)C[C@H]1C [syzx-205] | 4 | 4 | 4 | 4 | 0.5
CCCN1C[C@H](C)[C@@H](O)[C@](C)(O)[C@@H](CC)OC(=O)[C@H](C)[C@@H](O[C@H]2C[C@@](C)(OC)[C@](O)(CNN3CCCCC3)[C@H](C)O2)[C@H](C)[C@@H](O[C@@H]2O[C@H](C)C[C@H](N(C)C)[C@H]2O)[C@](C)(O)C[C@H]1C [syzx-206] | 0.5 | 0.25 | 0.25 | 0.5 | 0.25
CCCN1C[C@H](C)[C@@H](O)[C@](C)(O)[C@@H](CC)OC(=O)[C@H](C)[C@@H](O[C@H]2C[C@@](C)(OC)[C@](O)(CNc3ccc(Cl)nc3)[C@H](C)O2)[C@H](C)[C@@H](O[C@@H]2O[C@H](C)C[C@H](N(C)C)[C@H]2O)[C@](C)(O)C[C@H]1C [syzx-208] | 4 | 4 | 4 | 4 | 0.5
CCCN1C[C@H](C)[C@@H](O)[C@](C)(O)[C@@H](CC)OC(=O)[C@H](C)[C@@H](O[C@H]2C[C@@](C)(OC)[C@](O)(CN3CCCC3)[C@H](C)O2)[C@H](C)[C@@H](O[C@@H]2O[C@H](C)C[C@H](N(C)C)[C@H]2O)[C@](C)(O)C[C@H]1C [syzx-209] | 0.25 | 0.25 | 0.25 | 0.25 | 0.25
CCCN1CC(C)C(O)C(C)(O)C(CC)OC(=O)C(C)C(OC2CC(C)(OC)C(O)(CNc3n[nH]c(S)n3)C(C)O2)C(C)C(OC2OC(C)CC(N(C)C)C2O)C(C)(O)CC1C (stereo not drawn) [syzx-210] | 2 | 0.5 | 0.5 | 4 | 0.25
CCCN1C[C@H](C)[C@@H](O)[C@](C)(O)[C@@H](CC)OC(=O)[C@H](C)[C@@H](O[C@H]2C[C@@](C)(OC)[C@](O)(CNc3ccc(Cl)cn3)[C@H](C)O2)[C@H](C)[C@@H](O[C@@H]2O[C@H](C)C[C@H](N(C)C)[C@H]2O)[C@](C)(O)C[C@H]1C [syzx-211] | 2 | 4 | 4 | 8 | 0.5
C=CCN(CC=C)C[C@]1(O)[C@H](C)O[C@@H](O[C@H]2[C@H](C)[C@@H](O[C@@H]3O[C@H](C)C[C@H](N(C)C)[C@H]3O)[C@](C)(O)C[C@@H](C)N(CCC)C[C@H](C)[C@@H](O)[C@](C)(O)[C@@H](CC)OC(=O)[C@@H]2C)C[C@@]1(C)OC [syzx-214] | 4 | 2 | 2 | 8 | 0.25
CCCN1C[C@H](C)[C@@H](O)[C@](C)(O)[C@@H](CC)OC(=O)[C@H](C)[C@@H](O[C@H]2C[C@@](C)(OC)[C@](O)(CNC(=O)C(F)(F)F)[C@H](C)O2)[C@H](C)[C@@H](O[C@@H]2O[C@H](C)C[C@H](N(C)C)[C@H]2O)[C@](C)(O)C[C@H]1C [syzx-215] | 0.25 | 0.25 | 0.25 | 0.5 | 0.25
CCCN1C[C@H](C)[C@@H](O)[C@](C)(O)[C@@H](CC)OC(=O)[C@H](C)[C@@H](O[C@H]2C[C@@](C)(OC)[C@](O)(CNC3CC3)[C@H](C)O2)[C@H](C)[C@@H](O[C@@H]2O[C@H](C)C[C@H](N(C)C)[C@H]2O)[C@](C)(O)C[C@H]1C [syzx-217] | 0.25 | 0.25 | 0.25 | 0.5 | 0.25
